Data as given in US20100310688A1, “ACACIA EXTRACTS AND THEIR COMPOUNDS ON INHIBITION OF XANTHINE OXIDASE” (NATIONAL TAIWAN UNIVERSITY, priority 2009, published 2010).

Columns and labels:
xanthine oxidase [1] = molecular target: T1, xanthine oxidase (Homo sapiens, UniProt P47989); experiment: Xanthine oxidase inhibition assay (uric acid formation, OD 295 nm); format: biochemical; conditions: for EC50: isolated major compounds, read-out: EC50 of inhibitory activity on xanthine oxidase; for xanthine oxidase inhibitory activity as fold of allopurinol: relative to allopurinol EC50
T1 sequence (P47989 whole entry, species assumed): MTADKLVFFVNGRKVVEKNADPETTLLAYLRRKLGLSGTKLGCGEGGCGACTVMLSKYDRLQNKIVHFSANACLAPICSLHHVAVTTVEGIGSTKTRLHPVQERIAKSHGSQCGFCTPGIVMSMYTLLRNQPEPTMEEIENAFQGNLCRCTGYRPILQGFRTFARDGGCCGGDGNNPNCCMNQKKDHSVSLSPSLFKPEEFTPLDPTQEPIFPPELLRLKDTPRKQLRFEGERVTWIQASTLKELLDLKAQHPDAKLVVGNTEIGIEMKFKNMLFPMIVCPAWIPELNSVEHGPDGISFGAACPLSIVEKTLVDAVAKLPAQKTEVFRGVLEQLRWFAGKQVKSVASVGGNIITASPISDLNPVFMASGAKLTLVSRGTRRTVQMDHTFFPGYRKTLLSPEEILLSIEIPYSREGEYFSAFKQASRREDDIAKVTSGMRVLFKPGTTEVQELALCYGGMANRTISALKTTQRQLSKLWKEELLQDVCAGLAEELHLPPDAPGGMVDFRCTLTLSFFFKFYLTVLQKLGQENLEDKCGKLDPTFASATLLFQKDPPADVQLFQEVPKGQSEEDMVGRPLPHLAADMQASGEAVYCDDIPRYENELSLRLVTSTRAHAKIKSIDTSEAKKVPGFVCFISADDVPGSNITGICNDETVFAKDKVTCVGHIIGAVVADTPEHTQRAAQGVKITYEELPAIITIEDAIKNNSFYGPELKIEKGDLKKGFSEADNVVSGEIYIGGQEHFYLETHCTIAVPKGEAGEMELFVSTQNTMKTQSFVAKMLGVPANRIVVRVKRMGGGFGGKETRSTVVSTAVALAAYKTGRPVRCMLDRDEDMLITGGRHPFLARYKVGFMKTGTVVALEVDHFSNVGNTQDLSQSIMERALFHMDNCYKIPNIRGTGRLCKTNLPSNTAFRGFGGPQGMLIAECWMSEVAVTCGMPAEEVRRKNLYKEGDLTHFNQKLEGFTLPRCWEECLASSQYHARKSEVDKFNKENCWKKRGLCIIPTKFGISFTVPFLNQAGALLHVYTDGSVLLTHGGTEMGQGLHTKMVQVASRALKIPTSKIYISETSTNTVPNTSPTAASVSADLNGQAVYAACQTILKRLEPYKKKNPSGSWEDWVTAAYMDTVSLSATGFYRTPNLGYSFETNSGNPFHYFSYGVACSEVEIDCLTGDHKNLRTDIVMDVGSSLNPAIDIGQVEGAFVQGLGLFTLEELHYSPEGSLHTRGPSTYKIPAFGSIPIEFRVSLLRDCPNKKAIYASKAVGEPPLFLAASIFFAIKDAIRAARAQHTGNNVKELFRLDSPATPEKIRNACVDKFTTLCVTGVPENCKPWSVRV
Experimental: Various parts of Acacia confusa were cold extracted by ethanol for 3 times, 7 days for each time. The extraction solution was vacuum filtered with Whatman #1 filter paper to remove impurities. The filtered extraction solution was concentrated by rotatory vacuum evaporator and lyophilized by a lyophilizer for xanthine oxidase inhibition assay. This assay was detecting xanthine derived uric acid, which was catalyzed by xanthine oxidase, at specific absorbance of UV 295 nm. Therefore, 2 μL of various concentrations of sample were mixed with 798 μL of sodium pyrophosphate buffer (pH 7.5) and 0.1 U of xanthine oxidase for 5 min at 37° C. 200 μL of 0.6 mM xanthine were added and vortex to mix thoroughly, and measured OD 295 nm absorbance by UV/visible light spectrophotometer. Finally, xanthine oxidase inhibitory rate of extracts (%) was calculated.

xanthine oxidase [2] = molecular target: T1, xanthine oxidase; experiment: Inhibition mode determination by Lineweaver-Burk plot; format: biochemical; conditions: 0.3, 0.4 or 0.6 mM substrate
Experimental: 798 μL of 0.1 unit xanthine oxidase in 200 mM sodium pyrophosphate/sodium chloride buffer (soudium pyrophosphate/HCl, pH 7.5) were mixed with 2 μL of DMSO dissolved melanoxetin, 7,8,3′,4′-tetrahydroxyflavon or okanin in 96-well plate at 37° C. for 5 minutes. 0.3, 0.4, or 0.6 mM substrate dissolved in double distilled water were added to start the reaction. OD 295 nm absorbance was detected every one minute by ELISA reader for total eight minutes at ambient temperature. Excel software was used for analyzing the result of enzyme.

| Compound | inhibition at 5 µg/mL (xanthine oxidase [1]; at concentration of 5 μg/mL) | inhibition mode on xanthine oxidase (Lineweaver-Burk plot) (xanthine oxidase [2]) | EC50 (xanthine oxidase [1]) | xanthine oxidase inhibitory activity as fold of allopurinol (xanthine oxidase [1]) |
| --- | --- | --- | --- | --- |
| Oc1ncnc2[nH]ncc12 [allopurinol, reference compound] | 78% | competitive inhibition mode |  |  |
| O=c1c(O)c(-c2ccc(O)c(O)c2)oc2c(O)c(O)ccc12 [melanoxetin, 3,7,8,3′,4′-pentahydroxyflavone] |  | competitive inhibition mode | 274 nM | 17 fold |
| O=c1cc(-c2ccc(O)c(O)c2)oc2c(O)c(O)ccc12 [7,8,3′,4′-tetrahydroxyflavon] |  | competitive inhibition mode |  |  |
| O=C(/C=C/c1ccc(O)c(O)c1)c1ccc(O)c(O)c1O [okanin, 3,4,2′,3′,4′-pentahydroxy trans-chalcone] |  | non-competitive inhibition mode | 74 nM | 63 fold |
